Reference: ChEMBL document CHEMBL1201862, “PubChem BioAssay data set” (2004)
The source made the active and inactive calls.

Key:
Cytochrome P450 2C9 = Cytochrome P450 2C9 (Homo sapiens, UniProt P11712)
Cytochrome P450 3A4 = Cytochrome P450 3A4 (Homo sapiens, UniProt P08684);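 further: CYP3A4 tested as one member of a cytochrome P450 panel screen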
[1] = insulin promoter down-regulators in MIN6 cells, imaging, high-content screening, mouse beta cells (AID 1628); type: functional
[2] = cytotoxicity in MIN6 insulinoma cells, dose response, cytotoxicity control, cell-based, mouse insulinoma (AID 2122); type: functional;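 further: confirmatory high-throughput counterscreen run to flag cytotoxic compounds; mouse MIN-6 beta cells carrying an insulin promoter eGFP reporter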
[3] = inhibitors of intracellular T. cruzi replication, confirmation, NIH3T3 host cells, beta-gal luminescence (AID 2044); type: functional, cell-based;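 further: intracellular parasites grown in NIH/3T3 mouse fibroblasts as host cells; luminescent beta-galactosidase reporter signal from transgenic T. cruzi replicating inside host cells; inhibitors lower the luminescence signal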
[4] = cytotoxicity toward NIH3T3 fibroblasts, dose response, counter-screen, cell-based, ATP luminescence, mouse fibroblasts (AID 2010); type: functional;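 further: cells exposed to compound for about 90 hours before reading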
Vero = experiment: cells; type: functional; conditions: Chlorocebus sabaeus
[5] = biological target: T1, DNA repair and recombination protein RAD54-like (Homo sapiens, UniProt Q92698); experiment: inhibitors of human RAD54 branch migration, confirmation, biochemical, fluorescence, cherry-picked samples, dose series (AID 651657); type: functional
T1 sequence (Q92698 whole entry): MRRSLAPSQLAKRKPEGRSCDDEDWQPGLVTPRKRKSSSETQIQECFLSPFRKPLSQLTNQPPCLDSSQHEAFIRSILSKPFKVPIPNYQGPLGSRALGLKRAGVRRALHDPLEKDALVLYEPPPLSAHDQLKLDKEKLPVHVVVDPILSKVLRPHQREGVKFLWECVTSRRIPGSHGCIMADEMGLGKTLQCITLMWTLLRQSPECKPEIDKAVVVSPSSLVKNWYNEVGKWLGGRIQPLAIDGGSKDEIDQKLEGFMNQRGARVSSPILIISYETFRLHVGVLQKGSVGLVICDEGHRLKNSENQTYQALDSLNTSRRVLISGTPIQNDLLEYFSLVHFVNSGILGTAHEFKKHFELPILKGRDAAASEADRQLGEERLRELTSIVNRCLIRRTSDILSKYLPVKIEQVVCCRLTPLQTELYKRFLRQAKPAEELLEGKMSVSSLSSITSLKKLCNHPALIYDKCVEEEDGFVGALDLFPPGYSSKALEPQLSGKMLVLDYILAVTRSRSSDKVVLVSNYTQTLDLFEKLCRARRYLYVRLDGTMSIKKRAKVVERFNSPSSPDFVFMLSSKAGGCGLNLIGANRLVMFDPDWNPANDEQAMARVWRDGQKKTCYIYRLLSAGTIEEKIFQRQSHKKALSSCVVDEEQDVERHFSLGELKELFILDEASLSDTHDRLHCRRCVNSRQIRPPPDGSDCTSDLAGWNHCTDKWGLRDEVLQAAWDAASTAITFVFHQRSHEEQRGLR

Beta-galactosidase = Beta-galactosidase (Escherichia coli, UniProt Q8VNN2); experiment: PubChem AID 485352; type: functional
[6] = biological target: Type-1 angiotensin II receptor (Homo sapiens, UniProt P30556); experiment: AT1 receptor antagonists, dose response, selectivity assay for APJ receptor antagonist project, cell-based, uHTS hits (AID 463214); type: functional;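 further: antagonist potency against angiotensin II stimulated AT1 response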
[7] = biological target: T2, Microphthalmia-associated transcription factor (Homo sapiens, UniProt O75030); experiment: TRPM1 promoter luciferase signal decrease, dose response, MITF inhibitor project, cell-based, SK-MEL-5, cherry-picked, set 3 (AID 493073); type: functional
T2 sequence (O75030 whole entry): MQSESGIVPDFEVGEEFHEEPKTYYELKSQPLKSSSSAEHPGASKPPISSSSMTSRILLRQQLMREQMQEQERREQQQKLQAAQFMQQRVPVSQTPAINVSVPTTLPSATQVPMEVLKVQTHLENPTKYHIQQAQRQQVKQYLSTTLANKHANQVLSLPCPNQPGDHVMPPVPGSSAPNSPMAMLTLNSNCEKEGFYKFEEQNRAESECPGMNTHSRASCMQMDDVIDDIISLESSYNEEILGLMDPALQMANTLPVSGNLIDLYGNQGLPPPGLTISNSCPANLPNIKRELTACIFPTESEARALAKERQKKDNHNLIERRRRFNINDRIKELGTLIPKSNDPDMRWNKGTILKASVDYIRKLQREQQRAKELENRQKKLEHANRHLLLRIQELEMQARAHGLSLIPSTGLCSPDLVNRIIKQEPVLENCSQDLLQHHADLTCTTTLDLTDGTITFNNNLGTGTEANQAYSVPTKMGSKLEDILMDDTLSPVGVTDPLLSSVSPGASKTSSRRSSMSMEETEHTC

A-375 [8] = experiment: MITF: Counter assay: A375 proliferation Measured in Cell-Based System Using Plate Reader - 2084-03_Inhibitor_Dose_DryPowder_Activity. [Related pubchem assays (depositor defined):AID488944]; type: functional; conditions: Homo sapiens
[9] = A549 cell cytotoxicity, dose response, cytotoxicity control, plate reader, cherry-pick, antagonist series (AID 743412); type: functional, cell-based
[10] = LGR2 antagonists, dose response, cell-based, HEK293, CRE-luciferase reporter, cherry pick, set 2 (AID 743343); type: functional;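 further: transfected cells were stimulated with diluted bursicon conditioned medium after compound addition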
[11] = MC4R antagonists, dose response, counter-screen for LGR2 antagonist project, cell-based, plate reader, cherry pick (AID 743444); type: functional;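 further: transfected HEK 293 cells stimulated with alpha-MSH peptide; potency of inhibitors of the alpha-MSH evoked signal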
[12] = HEK293 cell cytotoxicity, dose response, cytotoxicity control, plate reader, cherry-picked samples (AID 743446); type: functional, cell-based
[13] = biological target: T3, DNA repair protein RAD52 homolog (Homo sapiens, UniProt P43351); type: functional, biochemical
T3 sequence (P43351 whole entry): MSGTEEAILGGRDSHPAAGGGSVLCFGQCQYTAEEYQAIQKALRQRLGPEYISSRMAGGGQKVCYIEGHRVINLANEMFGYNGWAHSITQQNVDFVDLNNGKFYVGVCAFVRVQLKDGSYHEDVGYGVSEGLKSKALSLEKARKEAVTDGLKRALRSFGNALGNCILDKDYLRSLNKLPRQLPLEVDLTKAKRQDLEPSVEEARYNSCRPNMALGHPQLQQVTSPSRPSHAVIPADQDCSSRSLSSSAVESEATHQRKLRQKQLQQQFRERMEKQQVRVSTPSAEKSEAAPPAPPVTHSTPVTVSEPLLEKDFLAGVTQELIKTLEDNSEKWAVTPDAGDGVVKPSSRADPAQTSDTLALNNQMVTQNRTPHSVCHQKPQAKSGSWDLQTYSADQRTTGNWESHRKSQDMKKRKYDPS

Escherichia coli = experiment: microbe, parasite or virus in culture
Genome polyprotein = Genome polyprotein (Hepatitis C virus, UniProt Q2Q167); experiment: HCV core protein dimerization inhibitors, dose response, biochemical, TR-FRET (AID 2159); set-up: species or system Hepacivirus hominis;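 further: blocks dimerization of HCV core protein measured by TR-FRET between tagged core106 pairs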
SUMO-activating enzyme [14] = biological target: T4, SUMO-activating enzyme (Homo sapiens, UniProt Q9UBT2); experiment: SUMOylation inhibitor hit validation, confirmation, SUMOylation inhibitor project, biochemical, AlphaScreen (AID 2018); type: functional
SUMO-activating enzyme [15] = biological target: T4, SUMO-activating enzyme; experiment: inhibitors of in vitro SUMOylation cascade, primary screen, biochemical, HTRF, uHTS (AID 2006); type: protein-complex assay
[16] = biological target: Induced myeloid leukemia cell differentiation protein Mcl-1 (Homo sapiens, UniProt Q07820); type: functional
[17] = biological target: Eukaryotic translation initiation factor 4E (Mus musculus, UniProt P63073); experiment: eIF4E–eIF4G protein interaction inhibitors, dose response, biochemical, TR-FRET (AID 855); type: functional;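 further: potency for disrupting eIF4E binding to eIF4GI seen as loss of FRET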
Cytochrome P450 2C19 = Cytochrome P450 2C19 (Homo sapiens, UniProt P33261); experiment: Cytochrome panel assay with activity outcomes. Panel member name: p450-cyp2c19 Compounds with AC50 equal or less than 10 uM are considered active; type: functional; conditions: read-out: AC50
Cytochrome P450 1A2 = biological target: T5, Cytochrome P450 1A2 (Homo sapiens, UniProt P05177);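 further: PubChem cytochrome P450 panel assay, CYP1A2 panel member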
T5 sequence (P05177 whole entry): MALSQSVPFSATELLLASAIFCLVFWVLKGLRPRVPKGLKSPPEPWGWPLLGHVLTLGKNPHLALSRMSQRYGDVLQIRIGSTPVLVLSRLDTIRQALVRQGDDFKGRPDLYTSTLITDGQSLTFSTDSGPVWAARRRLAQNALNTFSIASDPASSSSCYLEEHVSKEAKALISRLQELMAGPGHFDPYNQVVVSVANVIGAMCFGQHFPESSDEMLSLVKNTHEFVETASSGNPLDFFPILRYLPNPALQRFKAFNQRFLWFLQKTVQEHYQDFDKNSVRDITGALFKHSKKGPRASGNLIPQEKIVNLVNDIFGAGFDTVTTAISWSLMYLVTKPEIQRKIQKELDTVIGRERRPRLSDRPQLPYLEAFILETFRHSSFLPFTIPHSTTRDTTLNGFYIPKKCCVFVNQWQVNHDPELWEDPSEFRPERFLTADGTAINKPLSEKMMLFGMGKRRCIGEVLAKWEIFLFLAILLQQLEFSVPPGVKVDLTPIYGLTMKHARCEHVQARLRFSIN

[18] = biological target: Intestinal-type alkaline phosphatase (Mus musculus, UniProt P24822); experiment: PubChem AID 488874; type: functional
[19] = biological target: T6, Intestinal-type alkaline phosphatase (Homo sapiens, UniProt P09923); experiment: human intestinal alkaline phosphatase activators, dose response, biochemical, luminescence, uHTS hits (AID 463120); type: functional
[20] = biological target: T6, Intestinal-type alkaline phosphatase; experiment: human IAP activators, dose response, biochemical, luminescent, uHTS hits, set 2 (AID 488817); type: functional;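 further: potency of activators that raise enzyme activity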
[21] = biological target: T7, Alkaline phosphatase, tissue-nonspecific isozyme (Homo sapiens, UniProt P05186); experiment: TNAP enzyme activators, dose response, selectivity assay for human IAP activator project, biochemical, TNAP isozyme, human IAP uHTS hits (AID 488886); type: functional;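 further: potency of compounds raising TNAP activity as a selectivity check on IAP activators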
T7 sequence (P05186 whole entry): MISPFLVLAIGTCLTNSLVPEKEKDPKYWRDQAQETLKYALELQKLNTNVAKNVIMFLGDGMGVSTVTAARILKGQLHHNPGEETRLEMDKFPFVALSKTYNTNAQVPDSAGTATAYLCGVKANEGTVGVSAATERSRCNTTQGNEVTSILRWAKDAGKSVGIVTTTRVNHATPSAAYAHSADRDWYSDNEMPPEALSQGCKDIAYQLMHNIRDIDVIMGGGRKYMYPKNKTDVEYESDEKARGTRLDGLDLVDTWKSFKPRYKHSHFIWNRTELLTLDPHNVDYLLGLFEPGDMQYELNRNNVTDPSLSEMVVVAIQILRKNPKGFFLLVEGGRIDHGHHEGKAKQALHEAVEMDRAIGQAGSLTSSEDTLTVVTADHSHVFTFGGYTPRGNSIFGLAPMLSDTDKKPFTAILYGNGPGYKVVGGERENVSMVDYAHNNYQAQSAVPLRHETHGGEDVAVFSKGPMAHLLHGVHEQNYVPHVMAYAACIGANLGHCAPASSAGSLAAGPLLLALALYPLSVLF

A-375 [22] = experiment: A375 melanoma cell viability reduction, dose response, counter-screen for MITF modulator project, cherry-pick samples, set 2 (AID 540335); type: functional, cell-based; conditions: Homo sapiens
Jurkat = experiment: SAR Analysis of small molecule inhibitors of […] specific antigen receptor-induced NF-kB activation in a Jurkat cell line using a luminescence assay - Set 3. [Related pubchem assays (depositor defined):AID435022, AID435025, AID465]; type: functional, cell-based; conditions: Homo sapiens
HEK293 [23] = experiment: SAR Analysis of small molecule inhibitors of B-cell specific antigen receptor-induced NF-kB activation in a HEK-293T cell line using a luminescence assay - Set 2. [Related pubchem assays (depositor defined):AID435022, AID435025, AID489021]; type: functional, cell-based; conditions: Homo sapiens
HEK293 [24] = experiment: cytotoxicity in HEK293T NF-kB-Luc cells, SAR follow-up, cytotoxicity control for NF-kB activator project, cell-based, resazurin fluorescence (AID 493251); type: functional; conditions: Homo sapiens

T6 sequence (P09923 whole entry): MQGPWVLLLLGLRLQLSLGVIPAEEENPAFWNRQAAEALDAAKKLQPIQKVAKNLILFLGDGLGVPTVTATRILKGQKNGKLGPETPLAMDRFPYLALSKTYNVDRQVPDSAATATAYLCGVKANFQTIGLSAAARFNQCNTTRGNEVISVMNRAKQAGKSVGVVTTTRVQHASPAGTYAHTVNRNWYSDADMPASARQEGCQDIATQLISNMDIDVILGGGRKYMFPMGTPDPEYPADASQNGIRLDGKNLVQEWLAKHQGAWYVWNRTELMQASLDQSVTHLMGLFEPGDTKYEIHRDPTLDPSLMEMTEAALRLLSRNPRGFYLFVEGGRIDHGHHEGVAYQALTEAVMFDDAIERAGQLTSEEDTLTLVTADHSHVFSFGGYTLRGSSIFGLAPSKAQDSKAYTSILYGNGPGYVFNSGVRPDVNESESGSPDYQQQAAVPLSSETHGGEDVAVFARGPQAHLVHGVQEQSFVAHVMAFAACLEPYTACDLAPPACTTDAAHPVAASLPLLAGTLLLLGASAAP
T4 sequence (Q9UBE0 whole entry): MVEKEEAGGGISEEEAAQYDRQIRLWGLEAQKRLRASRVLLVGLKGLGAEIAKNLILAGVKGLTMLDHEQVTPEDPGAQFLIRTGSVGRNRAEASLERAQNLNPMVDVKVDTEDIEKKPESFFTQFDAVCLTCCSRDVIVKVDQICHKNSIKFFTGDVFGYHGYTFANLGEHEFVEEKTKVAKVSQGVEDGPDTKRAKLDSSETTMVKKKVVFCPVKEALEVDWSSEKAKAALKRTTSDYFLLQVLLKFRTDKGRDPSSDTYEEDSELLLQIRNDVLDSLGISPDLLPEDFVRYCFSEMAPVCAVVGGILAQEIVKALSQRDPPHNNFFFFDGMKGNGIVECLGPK
T4 sequence (Q9UBT2 whole entry): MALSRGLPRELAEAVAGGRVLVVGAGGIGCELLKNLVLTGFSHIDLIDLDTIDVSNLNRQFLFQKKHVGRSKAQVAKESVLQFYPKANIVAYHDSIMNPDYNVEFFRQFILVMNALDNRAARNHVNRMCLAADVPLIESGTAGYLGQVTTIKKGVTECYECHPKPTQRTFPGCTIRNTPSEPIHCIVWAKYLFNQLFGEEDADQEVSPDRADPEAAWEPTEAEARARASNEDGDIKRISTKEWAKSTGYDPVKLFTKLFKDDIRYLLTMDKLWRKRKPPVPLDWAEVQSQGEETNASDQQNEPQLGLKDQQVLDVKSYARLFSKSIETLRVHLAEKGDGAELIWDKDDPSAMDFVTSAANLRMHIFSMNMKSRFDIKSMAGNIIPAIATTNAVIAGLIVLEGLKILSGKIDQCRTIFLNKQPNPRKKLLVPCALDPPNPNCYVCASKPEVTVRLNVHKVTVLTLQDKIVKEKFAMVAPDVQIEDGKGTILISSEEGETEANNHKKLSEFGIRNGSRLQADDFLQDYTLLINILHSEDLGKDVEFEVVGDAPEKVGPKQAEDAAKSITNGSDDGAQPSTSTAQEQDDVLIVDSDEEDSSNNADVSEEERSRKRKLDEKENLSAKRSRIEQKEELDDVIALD
Cytochrome P450 3A4, sequence (P08684 whole entry): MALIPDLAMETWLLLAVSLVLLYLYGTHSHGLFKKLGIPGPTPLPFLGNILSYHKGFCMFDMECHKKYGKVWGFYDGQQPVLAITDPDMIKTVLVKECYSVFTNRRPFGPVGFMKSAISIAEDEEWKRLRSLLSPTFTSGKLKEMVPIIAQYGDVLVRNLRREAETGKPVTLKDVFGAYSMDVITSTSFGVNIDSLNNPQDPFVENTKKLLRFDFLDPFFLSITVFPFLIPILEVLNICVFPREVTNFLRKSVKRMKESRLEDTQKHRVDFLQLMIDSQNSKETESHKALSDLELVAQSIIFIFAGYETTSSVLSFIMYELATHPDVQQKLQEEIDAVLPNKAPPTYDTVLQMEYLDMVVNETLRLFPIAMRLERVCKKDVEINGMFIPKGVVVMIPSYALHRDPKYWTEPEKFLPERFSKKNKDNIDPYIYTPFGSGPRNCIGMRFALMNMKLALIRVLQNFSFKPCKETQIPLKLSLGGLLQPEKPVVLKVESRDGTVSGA
Intestinal-type alkaline phosphatase (Mus musculus, UniProt P24822), sequence (P24822 whole entry): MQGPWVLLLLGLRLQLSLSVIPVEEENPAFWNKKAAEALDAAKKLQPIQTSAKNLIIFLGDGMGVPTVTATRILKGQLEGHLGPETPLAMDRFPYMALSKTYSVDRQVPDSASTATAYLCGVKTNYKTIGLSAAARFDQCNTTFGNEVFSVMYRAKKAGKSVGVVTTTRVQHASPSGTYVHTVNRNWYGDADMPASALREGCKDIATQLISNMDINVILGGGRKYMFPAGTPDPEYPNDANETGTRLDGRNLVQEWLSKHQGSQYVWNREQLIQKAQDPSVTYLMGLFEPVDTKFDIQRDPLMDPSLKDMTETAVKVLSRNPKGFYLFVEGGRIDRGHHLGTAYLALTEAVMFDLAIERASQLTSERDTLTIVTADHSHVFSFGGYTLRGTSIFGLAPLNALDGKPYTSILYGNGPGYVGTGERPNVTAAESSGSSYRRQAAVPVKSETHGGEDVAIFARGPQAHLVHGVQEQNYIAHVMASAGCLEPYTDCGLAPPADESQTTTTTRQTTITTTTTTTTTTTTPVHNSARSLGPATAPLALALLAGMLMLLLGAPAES
Eukaryotic translation initiation factor 4E, sequence (P63073 whole entry): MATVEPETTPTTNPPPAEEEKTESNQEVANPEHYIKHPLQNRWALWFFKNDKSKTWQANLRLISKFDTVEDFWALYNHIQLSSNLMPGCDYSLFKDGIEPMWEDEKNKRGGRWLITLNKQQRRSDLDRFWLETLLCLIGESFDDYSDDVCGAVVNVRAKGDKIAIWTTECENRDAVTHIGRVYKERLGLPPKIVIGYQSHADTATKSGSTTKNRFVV
Genome polyprotein, sequence (Q2Q167 whole entry): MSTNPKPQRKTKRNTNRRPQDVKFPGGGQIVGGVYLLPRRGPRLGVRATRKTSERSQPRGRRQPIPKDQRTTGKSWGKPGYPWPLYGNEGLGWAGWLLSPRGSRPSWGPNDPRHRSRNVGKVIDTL
Type-1 angiotensin II receptor, sequence (P30556 whole entry): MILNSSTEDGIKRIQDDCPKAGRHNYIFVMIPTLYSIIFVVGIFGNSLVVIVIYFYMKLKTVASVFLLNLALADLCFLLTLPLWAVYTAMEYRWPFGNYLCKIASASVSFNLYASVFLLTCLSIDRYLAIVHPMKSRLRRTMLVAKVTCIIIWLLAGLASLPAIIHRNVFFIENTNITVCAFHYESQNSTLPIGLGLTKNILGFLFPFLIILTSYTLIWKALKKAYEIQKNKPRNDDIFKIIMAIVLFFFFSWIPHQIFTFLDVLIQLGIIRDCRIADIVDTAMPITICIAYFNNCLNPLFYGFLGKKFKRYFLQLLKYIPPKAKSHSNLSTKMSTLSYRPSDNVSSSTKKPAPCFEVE
Cytochrome P450 2C9, sequence (P11712 whole entry): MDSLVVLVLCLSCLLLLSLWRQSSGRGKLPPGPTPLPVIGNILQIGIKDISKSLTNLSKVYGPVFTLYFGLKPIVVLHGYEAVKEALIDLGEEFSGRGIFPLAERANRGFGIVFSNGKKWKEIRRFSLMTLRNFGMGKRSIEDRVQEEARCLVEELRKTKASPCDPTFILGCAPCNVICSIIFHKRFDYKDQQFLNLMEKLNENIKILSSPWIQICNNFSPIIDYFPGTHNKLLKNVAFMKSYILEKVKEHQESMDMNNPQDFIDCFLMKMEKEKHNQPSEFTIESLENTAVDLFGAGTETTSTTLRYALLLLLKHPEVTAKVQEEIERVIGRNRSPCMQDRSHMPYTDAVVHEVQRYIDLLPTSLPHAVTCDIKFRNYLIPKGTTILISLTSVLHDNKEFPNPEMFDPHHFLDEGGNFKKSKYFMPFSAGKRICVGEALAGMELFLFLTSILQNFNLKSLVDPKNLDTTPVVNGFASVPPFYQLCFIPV
Induced myeloid leukemia cell differentiation protein Mcl-1, sequence (Q07820 whole entry): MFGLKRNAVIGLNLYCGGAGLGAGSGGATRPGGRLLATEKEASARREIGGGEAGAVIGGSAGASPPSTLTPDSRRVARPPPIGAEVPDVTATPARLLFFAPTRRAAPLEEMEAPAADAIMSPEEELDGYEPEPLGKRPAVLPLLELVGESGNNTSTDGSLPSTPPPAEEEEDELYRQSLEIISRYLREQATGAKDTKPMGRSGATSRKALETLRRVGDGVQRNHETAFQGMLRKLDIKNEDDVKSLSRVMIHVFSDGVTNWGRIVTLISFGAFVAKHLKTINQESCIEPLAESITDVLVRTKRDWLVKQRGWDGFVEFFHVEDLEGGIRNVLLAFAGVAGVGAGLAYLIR
Cytochrome P450 2C19, sequence (P33261 whole entry): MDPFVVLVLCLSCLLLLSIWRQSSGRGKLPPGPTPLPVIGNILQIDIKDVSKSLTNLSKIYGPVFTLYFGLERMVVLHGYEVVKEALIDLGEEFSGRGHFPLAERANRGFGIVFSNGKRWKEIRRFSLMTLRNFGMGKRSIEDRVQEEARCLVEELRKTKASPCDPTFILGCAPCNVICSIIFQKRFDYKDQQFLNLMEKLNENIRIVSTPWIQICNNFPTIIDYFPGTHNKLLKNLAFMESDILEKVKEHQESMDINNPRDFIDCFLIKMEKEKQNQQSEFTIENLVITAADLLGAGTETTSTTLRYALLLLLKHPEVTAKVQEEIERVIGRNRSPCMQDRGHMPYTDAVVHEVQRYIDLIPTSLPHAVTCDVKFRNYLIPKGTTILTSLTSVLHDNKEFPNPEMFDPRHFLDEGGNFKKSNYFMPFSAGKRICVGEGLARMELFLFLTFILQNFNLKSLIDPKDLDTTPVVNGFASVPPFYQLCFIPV

COc1ccc2c(=O)c(-c3ccccc3)c(C)oc2c1
AC50 (Cytochrome P450 2C9): 10 µM (inconclusive) | AC50 (Cytochrome P450 3A4): inconclusive

Cc1cc(N2CCN(C)CC2)nc2ccc(NC(S)=NCCN3CCc4ccccc4C3)cc12
IC50 [1]: 4.64 µM (active) | IC50 [2]: 4.81 µM (active) | EC50 [3]: 0.683 µM (active) | EC50 [4]: > 60 µM (not active) | CC50 (Vero): 15.9 µM (active) | AC50 [5]: 20.4 µM (active)

CN(C)CC(=O)c1ccc(-c2ccccc2)cc1
EC50 (Beta-galactosidase): > 40 µM (inactive) | IC50 [6]: > 40 µM (not active)

CCCNC(=O)COC(=O)c1ccccc1C(=O)c1ccc(Cl)c([N+](=O)[O-])c1
AC50 [7]: 8.34 µM (active) | AC50 (A-375 [8]): 34.3 µM (active) | AC50 [9]: 7.32 µM (active) | AC50 [10]: 8.85 µM (active) | AC50 [11]: 10.6 µM (active) | AC50 [12]: 10.7 µM (active)

CCCCN(CC)CCN=C(S)Nc1ccc2nc(N3CCN(C)CC3)cc(C)c2c1
EC50 [3]: 0.34 µM (active) | EC50 [4]: 4.9 µM (active) | AC50 [5]: 22.5 µM (active) | AC50 [13]: 5.01 µM (active) | AC50 (Escherichia coli): 56 µM (active)

CC(=O)c1sc2nc(CSc3nnnn3-c3ccccc3)[nH]c(=O)c2c1C
IC50 (Genome polyprotein): > 49.8 µM (not active) | IC50 (SUMO-activating enzyme [14]): 6.5 µM (active) | IC50 (SUMO-activating enzyme [15]): 27.9 µM (active) | IC50 [16]: 1.71 µM (active) | IC50 [17]: 50 µM (inactive)

O=C(c1ccccc1)c1c[nH]c(C(=O)NCCCN2CCOCC2)c1
AC50 (Cytochrome P450 2C19): 0.0355 µM (inconclusive) | AC50 (Cytochrome P450 1A2): 25.1 µM (inconclusive) | AC50 (Cytochrome P450 3A4): inconclusive

CC(C)Oc1ccc(CCC(=O)NNC(=S)NCc2ccccc2)cc1
IC50 [18]: 60.3 µM (active) | EC50 [19]: 18.8 µM (active) | EC50 [20]: 21.8 µM (active) | EC50 [21]: 21.1 µM (active)

O=C(COc1ccc(Cl)cc1Cl)Nc1ccccn1
AC50 [7]: 2.19 µM (active) | AC50 (A-375 [22]): 18.4 µM (active)

COc1ccc(OC)c(-n2c(SCC(=O)N3CCc4ccccc43)nc3c(c2=O)SCC3)c1
AC50 (Escherichia coli): 71.1 µM (active)

OC(c1nc2cc(F)ccc2[nH]1)C(O)c1nc2cc(F)ccc2[nH]1 (stereo not drawn)
IC50 [18]: 58.5 µM (active) | EC50 [19]: 4.97 µM (active) | EC50 [20]: 9.13 µM (active) | EC50 [21]: 9.85 µM (active)

CCOc1ccc(-c2nc(CSCC(=O)NC(C)CC)c(C)o2)cc1 (stereo not drawn)
IC50 (Jurkat): > 80 µM (inactive) | IC50 (HEK293 [23]): 35.7 µM (inactive) | IC50 (HEK293 [24]): 74.6 µM (inactive)
